Measured values taken from ChEMBL document CHEMBL3045876, “Molecular modeling studies and synthesis of novel quinoxaline derivatives with potential anti-cancer activity as inhibitors of methionine synthase” (Med Chem Res, 2013).

Experiments:
MCF7 = test: Cytotoxicity against Homo sapiens (human) MCF7 cells after 96 hr by MTT assay; format: functional, cell-based; settings: MCF7, 96 h
PC-3 = test: Cytotoxicity against Homo sapiens (human) PC3 cells after 96 hr by MTT assay; format: functional, cell-based; settings: PC-3, 96 h
[1] = molecular target: Methionine synthase (Homo sapiens) (UniProt Q99707); test: Inhibition of methionine synthase (unknown origin) by cell free assay; set-up: concentration or dose not given beside the values; settings: concentration not given here
Methionine synthase (Homo sapiens), sequence (Q99707 whole entry): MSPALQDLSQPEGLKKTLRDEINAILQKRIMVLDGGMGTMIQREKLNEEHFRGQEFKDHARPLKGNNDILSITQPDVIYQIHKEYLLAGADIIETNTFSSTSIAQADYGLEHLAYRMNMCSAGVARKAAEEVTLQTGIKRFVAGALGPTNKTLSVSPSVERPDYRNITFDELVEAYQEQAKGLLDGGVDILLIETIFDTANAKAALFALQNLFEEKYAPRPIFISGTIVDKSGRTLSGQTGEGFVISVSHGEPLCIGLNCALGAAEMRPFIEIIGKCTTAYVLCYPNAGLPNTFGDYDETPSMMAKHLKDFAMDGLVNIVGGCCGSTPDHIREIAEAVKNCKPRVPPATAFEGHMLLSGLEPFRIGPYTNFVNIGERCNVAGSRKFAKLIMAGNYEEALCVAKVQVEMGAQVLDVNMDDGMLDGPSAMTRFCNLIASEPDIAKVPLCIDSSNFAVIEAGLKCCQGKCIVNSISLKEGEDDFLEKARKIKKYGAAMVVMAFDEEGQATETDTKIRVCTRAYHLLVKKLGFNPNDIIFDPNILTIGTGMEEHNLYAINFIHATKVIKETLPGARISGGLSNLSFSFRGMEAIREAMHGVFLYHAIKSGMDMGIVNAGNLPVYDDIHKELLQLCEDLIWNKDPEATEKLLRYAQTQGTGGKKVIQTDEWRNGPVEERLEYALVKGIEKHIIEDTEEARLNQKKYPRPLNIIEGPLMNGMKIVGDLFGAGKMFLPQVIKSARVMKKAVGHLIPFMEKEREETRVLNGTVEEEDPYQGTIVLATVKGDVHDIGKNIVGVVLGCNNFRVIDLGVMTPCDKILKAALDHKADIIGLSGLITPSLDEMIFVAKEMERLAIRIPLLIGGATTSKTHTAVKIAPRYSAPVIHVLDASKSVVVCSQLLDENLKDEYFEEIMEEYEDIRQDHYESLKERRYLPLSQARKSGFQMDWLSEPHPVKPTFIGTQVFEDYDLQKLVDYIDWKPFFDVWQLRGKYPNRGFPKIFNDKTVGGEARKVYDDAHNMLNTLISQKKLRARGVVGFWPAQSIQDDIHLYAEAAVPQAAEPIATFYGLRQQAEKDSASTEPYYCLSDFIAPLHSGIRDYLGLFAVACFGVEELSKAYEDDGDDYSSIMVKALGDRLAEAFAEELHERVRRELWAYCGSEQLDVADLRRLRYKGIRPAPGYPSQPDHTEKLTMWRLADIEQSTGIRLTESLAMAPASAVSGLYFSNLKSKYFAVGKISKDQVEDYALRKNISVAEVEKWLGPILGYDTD

What does the source list for `O=[N+]([O-])c1ccc2nc(CNc3ccc(Cl)cc3)cnc2c1`?
IC50 (MCF7): 75 µM; IC50 (PC-3): 70 µM; inhibition [1]: 45%

Which results are given for `Cc1ccc(NCc2cnc3cc([N+](=O)[O-])ccc3n2)cc1`?
IC50 (MCF7): 68 µM; IC50 (PC-3): 57 µM; inhibition [1]: 65%

How did the IC50 (MCF7) turn out when `O=[N+]([O-])c1ccc2nc(CNc3ccccc3)cnc2c1` was run?
The IC50 was 61 µM.

What about the IC50 (PC-3) of the same compound?
Its IC50 is 56 µM.

And the inhibition [1]?
Its inhibition is 65.9%.

How did the IC50 (MCF7) turn out when `O=C(O)c1ccc(NCc2cnc3cc([N+](=O)[O-])ccc3n2)cc1` was run?
Its IC50 is 53 µM.

What about the IC50 (PC-3) of the same compound?
Its IC50 is 45 µM.

And the inhibition [1]?
Its inhibition is 89%.

What does the source list for `CCNC(=O)c1ccc(NCc2cnc3cc([N+](=O)[O-])ccc3n2)cc1`?
IC50 (MCF7): 49 µM; IC50 (PC-3): 66 µM

`Cc1cccc(NCc2cnc3cc([N+](=O)[O-])ccc3n2)c1` was tested. Which IC50 (MCF7) did it give?
Its IC50 is 79 µM.

And the IC50 (PC-3)?
The IC50 was 77 µM.

What about the inhibition [1] of the same compound?
The inhibition was 45%.

What does the source list for `CNC(=O)c1ccc(NCc2cnc3cc([N+](=O)[O-])ccc3n2)cc1`?
IC50 (MCF7): 47 µM; IC50 (PC-3): 49 µM

Which results are given for `O=[N+]([O-])c1ccc2nc(CCl)cnc2c1`?
IC50 (MCF7): 66 µM; IC50 (PC-3): 70 µM; inhibition [1]: 55%
